pIC50: −log10 of the molar value.
System: 777334-354-R2-J4-PDC tumor spheroids with HUVEC/MSC, viability
Test: Anticancer human tumor 777334-354-R2-J4-PDC patient-derived pancreatic adenocarcinoma cell line growth inhibition [GQUAD]
Conditions: for pIC50: curve of first compound; for viability, T/C: stronger effect = lower value; active means viability on the fitted dose curve at most 10% of control; inactive means the rest
Outline: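 Multi-cell-type spheroids of tumor cells with HUVEC and mesenchymal stem cells, treated with drug combinations. Concentrations descend in half-log steps from near clinical Cmax, or from 10 microM where Cmax is unknown; viability read-out.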

[1] = second compound 0.0316 µM, first compound 0.0316 µM
[2] = second compound 0.0316 µM, first compound 0.1 µM
[3] = second compound 0.0316 µM, first compound 0.316 µM
[4] = second compound 0.0316 µM, first compound 1 µM
[5] = second compound 0.0316 µM, first compound 3.16 µM
[6] = second compound 0.0316 µM, first compound 10 µM
[7] = second compound 0.1 µM, first compound 0.0316 µM
[8] = second compound 0.1 µM, first compound 0.1 µM
[9] = second compound 0.1 µM, first compound 0.316 µM
[10] = second compound 0.1 µM, first compound 1 µM
[11] = second compound 0.1 µM, first compound 3.16 µM
[12] = second compound 0.1 µM, first compound 10 µM
[13] = second compound 0.316 µM, first compound 0.0316 µM
[14] = second compound 0.316 µM, first compound 0.1 µM
[15] = second compound 0.316 µM, first compound 0.316 µM
[16] = second compound 0.316 µM, first compound 1 µM
[17] = second compound 0.316 µM, first compound 3.16 µM
[18] = second compound 0.316 µM, first compound 10 µM
[19] = second compound 1 µM, first compound 0.0316 µM
[20] = second compound 1 µM, first compound 0.1 µM
[21] = second compound 1 µM, first compound 0.316 µM
[22] = second compound 1 µM, first compound 1 µM
[23] = second compound 1 µM, first compound 3.16 µM
[24] = second compound 1 µM, first compound 10 µM
[25] = second compound 3.16 µM, first compound 0.0316 µM
[26] = second compound 3.16 µM, first compound 0.1 µM
[27] = second compound 3.16 µM, first compound 0.316 µM
[28] = second compound 3.16 µM, first compound 1 µM
[29] = second compound 3.16 µM, first compound 3.16 µM
[30] = second compound 3.16 µM, first compound 10 µM
[31] = second compound 10 µM, first compound 0.0316 µM
[32] = second compound 10 µM, first compound 0.1 µM
[33] = second compound 10 µM, first compound 0.316 µM
[34] = second compound 10 µM, first compound 1 µM
[35] = second compound 10 µM, first compound 3.16 µM
[36] = second compound 10 µM, first compound 10 µM
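Further: spheroids exposed to compounds for 7 days before readout.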

Nc1ccn(C2OC(CO)C(O)C2(F)F)c(=O)n1 (stereo unspecified) + Cc1[nH]c2ccc(F)cc2c1-c1nc2c3cccnc3c3ncccc3c2[nH]1
6.09: pIC50 (second compound 0.316 µM)
> 7.50: pIC50 (second compound 3.16 µM) | pIC50 (second compound 10 µM)
6.33: pIC50 (second compound 1 µM)
6.03: pIC50 (second compound 0.0316 µM)
inactive: viability, T/C [1] 88% | viability, T/C [2] 67.5% | viability, T/C [3] 65% | viability, T/C [4] 46.3% | viability, T/C [5] 41.6% | viability, T/C [6] 34% | viability, T/C [7] 90.2% | viability, T/C [8] 74% | viability, T/C [9] 69.2% | viability, T/C [10] 47.6% | viability, T/C [11] 41.3% | viability, T/C [12] 32.1% | viability, T/C [13] 75.5% | viability, T/C [14] 84.7% | viability, T/C [15] 59.4% | viability, T/C [16] 49.7% | viability, T/C [17] 39.8% | viability, T/C [18] 35.5% | viability, T/C [19] 73.5% | viability, T/C [20] 68% | viability, T/C [21] 52.6% | viability, T/C [22] 40.7% | viability, T/C [23] 39.4% | viability, T/C [24] 29.3% | viability, T/C [25] 36.6% | viability, T/C [26] 31.7% | viability, T/C [27] 30.7% | viability, T/C [28] 13.8% | viability, T/C [29] 13.6% | viability, T/C [30] 12.9% | viability, T/C [31] 30% | viability, T/C [32] 26.9% | viability, T/C [33] 16.2% | viability, T/C [34] 10.3%
5.94: pIC50 (second compound 0.1 µM)
active: viability, T/C [35] 8.66% | viability, T/C [36] 7.59%

C#Cc1c(F)ccc2cc(O)cc(-c3ncc4c(N5CC6CCC(C5)N6)nc(OCC56CCCN5CC(F)C6)nc4c3F)c12 (stereo unspecified) + Cc1[nH]c2ccc(F)cc2c1-c1nc2c3cccnc3c3ncccc3c2[nH]1
inactive: viability, T/C [1] 54.6% | viability, T/C [2] 52.6% | viability, T/C [3] 37.2% | viability, T/C [4] 34.6% | viability, T/C [5] 25.9% | viability, T/C [6] 20% | viability, T/C [7] 56.3% | viability, T/C [8] 37.2% | viability, T/C [9] 32.2% | viability, T/C [10] 38.1% | viability, T/C [11] 26.3% | viability, T/C [12] 20.8% | viability, T/C [13] 51.2% | viability, T/C [14] 38.6% | viability, T/C [15] 34.9% | viability, T/C [16] 39.1% | viability, T/C [17] 21% | viability, T/C [18] 24.6% | viability, T/C [19] 48% | viability, T/C [20] 33.9% | viability, T/C [21] 27.6% | viability, T/C [22] 26.1% | viability, T/C [23] 21.9% | viability, T/C [24] 18.1% | viability, T/C [25] 26% | viability, T/C [26] 10.1% | viability, T/C [31] 16.9% | viability, T/C [32] 9.99%
7.09: pIC50 (second compound 0.0316 µM)
> 7.50: pIC50 (second compound 0.316 µM) | pIC50 (second compound 1 µM) | pIC50 (second compound 3.16 µM) | pIC50 (second compound 10 µM)
active: viability, T/C [27] 9.09% | viability, T/C [28] 7.85% | viability, T/C [29] 10.6% | viability, T/C [30] 8.93% | viability, T/C [33] 10.5% | viability, T/C [34] 10.1% | viability, T/C [35] 8.96% | viability, T/C [36] 8.05%
7.32: pIC50 (second compound 0.1 µM)

COc1ccc([C@@H](O)c2cc(-c3ncnc4cc(N5CCOCC5)ccc34)c(F)cc2Cl)nn1 + Cc1cnc(CNC(=O)c2c(=O)c3ccc(N4CCCN(C)CC4)nc3n3c2sc2ccccc23)cn1
5.83: pIC50 (second compound 1 µM)
inactive: viability, T/C [1] 101% | viability, T/C [2] 94.4% | viability, T/C [3] 101% | viability, T/C [4] 72.1% | viability, T/C [5] 51% | viability, T/C [6] 24.6% | viability, T/C [7] 102% | viability, T/C [8] 84.4% | viability, T/C [9] 69.9% | viability, T/C [10] 57.9% | viability, T/C [11] 42.8% | viability, T/C [12] 23.2% | viability, T/C [13] 93.9% | viability, T/C [14] 89.3% | viability, T/C [15] 75.8% | viability, T/C [16] 64.8% | viability, T/C [17] 42% | viability, T/C [18] 20.1% | viability, T/C [19] 76.2% | viability, T/C [20] 84.1% | viability, T/C [21] 69.5% | viability, T/C [22] 57.7% | viability, T/C [23] 36.3% | viability, T/C [24] 19.2% | viability, T/C [25] 61.1% | viability, T/C [26] 64.9% | viability, T/C [27] 63.1% | viability, T/C [28] 45.6% | viability, T/C [29] 34.9% | viability, T/C [30] 17.1% | viability, T/C [31] 58.4% | viability, T/C [32] 61% | viability, T/C [33] 52.5% | viability, T/C [34] 48.5% | viability, T/C [35] 28.6% | viability, T/C [36] 15.6%
5.52: pIC50 (second compound 0.0316 µM)
6.02: pIC50 (second compound 3.16 µM)
5.79: pIC50 (second compound 0.1 µM)
5.68: pIC50 (second compound 0.316 µM)
6.18: pIC50 (second compound 10 µM)
